From patent US6624174B2, “2-amino-nicotinamide derivatives and their use as VEGF-receptor tyrosine kinase inhibitors” (Novartis AG, priority 2000, dated 2003)

Structure (SMILES) | melting point [°C]
CCCCCc1ccc(NC(=O)c2cccnc2NCc2ccncc2)cc1 [Example 11, 2-[(4-Pyridyl)methylamino]-N-[4-(n-pentyl)phenyl]-3-pyridinecarboxamide] | 106 to 107
O=C(Nc1cc(F)cc(C(F)(F)F)c1)c1cccnc1NCc1ccncc1 [Example 7, 2-[(4-Pyridyl)methylamino]-N-[3-fluoro-5-(trifluoromethyl)phenyl]-3-pyridinecarboxamide] | 196
COc1ccc(CNc2ncccc2C(=O)Nc2ccc(Br)c(C(F)(F)F)c2)cn1 [Example 24, 2-[(6-Methoxypyrid-3-yl)methylamino]-N-[4-bromo-3-(trifluoromethyl)phenyl]-3-pyridinecarboxamide] | 123 to 125
CC#Cc1ccc(NC(=O)c2cccnc2NCc2ccncc2)cc1 [Example 12, 2-[(4-Pyridyl)methylamino]-N-[4-(1-propynyl)phenyl]-3-pyridinecarboxamide] | 216 to 221
O=C(Nc1ccc2[nH]ncc2c1)c1cccnc1NCc1ccncc1 [Example 13, 2-[(4-Pyridyl)methylamino]-N-(5-indazolyl)-3-pyridinecarboxamide] | 225 to 230
CC(C)(C)[C@H]1CC[C@H](NC(=O)c2cccnc2NCc2ccncc2)CC1 [Example 8, 2-[(4-Pyridyl)methylamino]-N-(trans-4-tert-butyl-cyclohexyl)-3-pyridinecarboxamide] | 165 to 167
O=C(Nc1cccc(C(F)(F)F)c1F)c1cccnc1NCc1ccncc1 [Example 19, 2-[(4-Pyridyl)methylamino]-N-[2-fluoro-3-(trifluoromethyl)phenyl]-3-pyridinecarboxamide] | 137 to 140
CCCCc1ccc(NC(=O)c2cccnc2NCc2ccncc2)cc1 [Example 10, 2-[(4-Pyridyl)methylamino]-N-[4-(n-butyl)phenyl)3-pyridinecarboxamide] | 107 to 108
O=C(Nc1cccc(C(F)(F)F)c1)c1cccnc1NCc1cccc(O)c1 [Example 34, 2-[(3-Hydroxyphenyl)methyl]amino-N-[3-(trifluoromethyl)phenyl]-3-pyridinecarboxamide] | 143 to 146
COc1ccc(CNc2ncccc2C(=O)Nc2cccc(C(F)(F)F)c2)cn1.Cl.Cl | 185
CC(C)(C)[C@H]1CC[C@@H](NC(=O)c2cccnc2NCc2ccncc2)CC1 [Example 23, 2-[(4-Pyridyl)methylamino]-N-(cis-4-tert-butyl-cyclohexyl)-3-pyridinecarboxamide] | 103 to 106
O=C(Nc1cc2ccccc2cn1)c1cccnc1NCc1ccncc1 [Example 14, 2-[(4-Pyridyl)methylamino]-N-(3-isoquinolinyl)-3-pyridinecarboxamide] | 191 to 195
CC#Cc1ccc(NC(=O)c2cccnc2NCc2ccc(=O)[nH]c2)cc1C(F)(F)F [Example 32, 2-[(Pyridin-2(1H)-on-5-yl)methyl]amino-N-[4-propynyl-3-(trifluoromethyl)phenyl]-3-pyridinecarboxamide] | 211 to 218
O=C(Nc1cccc(C(F)(F)F)c1F)c1cccnc1NCc1ccc(=O)[nH]c1 [Example 36, 2-[(Pyridin-2(1H)-on-5-yl)methyl]amino-N-[2-fluoro-3-(trifluoromethyl)phenyl]-3-pyridinecarboxamide] | 219 to 222

Continued, values first:

melting point [°C] | Structure (SMILES)
194 to 196 | O=C(Nc1ccc(C(F)(F)F)c(C(F)(F)F)c1)c1cccnc1NCc1ccncc1 [Example 6, 2-[(4-Pyridyl)methylamino]-N-[3,4-bis(trifluoromethyl)phenyl]-3-pyridinecarboxamide]
213 to 217 | CC#Cc1ccc(NC(=O)c2cccnc2NCc2ccncc2)cc1C(F)(F)F [Example 31, 2-[(4-Pyridyl)methylamino]-N-[4-propynyl-3-(trifluoromethyl)phenyl]3-pyridinecarboxamide]
220 to 224 | CCCc1ccc(NC(=O)c2cccnc2NCc2ccc(=O)[nH]c2)cc1C(F)(F)F [Example 38, 2-[(Pyridin-2(1H)-on-5-yl)methyl]amino-N-[4-propyl-3-(trifluoromethyl)phenyl]-3-pyridinecarboxamide]
147 to 149 | CCCc1ccc(NC(=O)c2cccnc2NCc2ccncc2)cc1C(F)(F)F [Example 40, 2-[(4-Pyridyl)methyl]amino-N-[4-(n-propyl)-3-(trifluoromethyl)phenyl]-3-pyridinecarboxamide]
147 to 149 | CCCc1ccc(NC(=O)c2cccnc2NCc2ccncc2)cc1 [Example 9, 2-[(4-Pyridyl)methylamino]-N-[4-(n-propyl)phenyl]-3-pyridinecarboxamide]
146 to 147 | Cc1c(NC(=O)c2cccnc2NCc2ccncc2)cccc1C(F)(F)F [Example 21, 2-[(4-Pyridyl)methylamino]-N-[2-methyl-3-(trifluoromethyl)phenyl]-3-pyridinecarboxamide]
164 to 165 | O=C(Nc1ccc(Br)c(C(F)(F)F)c1)c1cccnc1NCc1ccncc1 [Example 20, 2-[(4-Pyridyl)methylamino]-N-[4-bromo-3-(trifluoromethyl)phenyl]-3-pyridinecarboxamide]
155 to 156 | Cc1ccc(C(F)(F)F)cc1NC(=O)c1cccnc1NCc1ccncc1 [Example 22, 2-[(4-Pyridyl)methylamino]-N-[2-methyl-5-(trifluoromethyl)phenyl]-3-pyridinecarboxamide]
